This is an account of results in paper PMC12530842, “Potent, Selective, and Drug‐Like G Protein‐Coupled Receptor Kinase 5 and 6 Inhibitors: Design, Synthesis, and X‐Ray Structural Studies” (Chemmedchem, 2025).

Type in all cases: biochemical
One test addresses T1, GRK2 (Homo sapiens, UniProt P25098).
T1 construct: made in house
T1 sequence (P25098 1-689): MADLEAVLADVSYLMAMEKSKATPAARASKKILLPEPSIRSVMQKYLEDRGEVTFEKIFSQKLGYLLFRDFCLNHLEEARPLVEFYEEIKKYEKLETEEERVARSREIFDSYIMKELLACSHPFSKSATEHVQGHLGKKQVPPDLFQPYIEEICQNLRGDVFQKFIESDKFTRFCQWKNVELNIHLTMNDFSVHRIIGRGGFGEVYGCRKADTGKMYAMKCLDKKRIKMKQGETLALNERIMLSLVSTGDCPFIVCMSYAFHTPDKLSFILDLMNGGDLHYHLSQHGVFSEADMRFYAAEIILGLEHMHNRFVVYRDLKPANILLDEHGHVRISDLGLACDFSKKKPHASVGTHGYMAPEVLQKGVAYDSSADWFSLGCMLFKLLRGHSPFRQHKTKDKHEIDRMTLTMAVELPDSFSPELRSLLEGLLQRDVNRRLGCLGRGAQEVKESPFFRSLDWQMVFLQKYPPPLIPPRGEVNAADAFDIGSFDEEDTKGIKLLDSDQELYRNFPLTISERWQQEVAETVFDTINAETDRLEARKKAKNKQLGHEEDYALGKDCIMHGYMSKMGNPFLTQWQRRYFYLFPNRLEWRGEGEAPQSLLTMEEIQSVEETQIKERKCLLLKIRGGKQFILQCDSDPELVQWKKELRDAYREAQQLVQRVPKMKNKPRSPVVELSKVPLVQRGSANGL
Put plainly: GRK2 kinase inhibition assay, phosphorylation of tubulin ([γ-32P]-ATP). The following applies: for IC50: phosphorylation of the soluble substrate tubulin, ± standard deviation from 3 to 4 independent experiments. As for the experimental part:
(§1) The inhibitory potency of synthetic compounds containing the N‐heterocyclic amide functionalities was evaluated against human GRK2, GRK5 and GRK6 using our in vitro assays‐, as reported previously.^[ [35], [37] ^] […] We then investigated the effect of (R)‐ and (S)‐Boc pyrrolidine carboxamide derivatives. […] These improvements of GRK5 IC50 values over their Boc‐derivatives (6c and 6d) indicated the bulky Boc group may not be able to fit as well in the catalytic site of these GRKs. On the other hand, sterically less demanding acetamide derivatives 6e and 6f were well accommodated consistent with their very good activity against GRK5, GRK6, and GRK2, but only with marginal selectivity against GRK2. […] We also examined the effect of 3(S)‐ and 3(R)‐Boc‐pyrrolidine derivatives.
(§2) Protein expression and purification.
(§3) Human GR K5 (residues 1- 590) w ild- type and D 311N mutant w ere expressed in E. co li Rosetta (D E3) and purified v ia nickel-nitrilotriacetic acid affinity chromatography, followed by tandem columns consisting of a HiTrap Q HP anion exchange chromatography column and a HiTrap SP HP cation exchange chromatography column, and finished by Superdex 200 Increase size -exclusion chromatography, as described previously. Human GRK6 (with T10A and mutations that eliminate palmitoylation sites) was expressed in Sf9 insect cells [ 2] and was purified w ith the same protocol for GR K5 [1]. Human GRK2 w as purified as described previously.
(§4) Kinase inhibition Assays.
(§5) Inhibit ion assays were conducted in a reaction mixture containing 20 mM H EPES pH 7. 0, 2 mM MgC l2, and 0.025% n- dodecyl-β-D-maltoside. Prior to reaction initiation, GR K5 or GR K6 at 50 nM was mixed w ith porcine brain tubulin ( PurSolutions) at a concentration of 500 nM. The assay w as started w ith a 30- second incubation of inhibitors, followed by the add it ion of 5 μ M ATP supplemented w ith radioactive [γ-32P]-AT P a t 60 C i/m mol (PerkinElm er Life Sciences). Re actions pro ceeded for 5 m inut es at ro o m te mpera ture a nd were terminated by adding 4X SDS loading buffer. T he reaction mixtures were then s eparated via SDS - PAG E, dried, and exposed using a phosphor imaging screen. Quantification was performed using a Personal Molecular Imager and Quantity One 1- D Analysis Software. Analogous inhibition assays were conducted on p urified GR K2 wit h a t ub ulin conce ntrat ion of 1 μ M. Data ana lysis was perf orme d usin g Graph Pa d Pr ism, and IC50 values wer e calculated based on three- parameter dose- dependent curves (with a Hill coefficient fixed at 1) plotting phosphate transfer against inhibitor concentration. At least three replicates were conducted to determine the mean and standard deviation of IC50 values as published previously . […]
(§6) (6) The final models w ere validated with MolProbity prior to depos ition along with structure factors in the Protein Data Bank. Atomic figures were created with Py mol (7). Cr ystallographic statistics are reported in Supplemental Table 1. Coordinates for inh ib itor 6t (GRL-098- 22) w ere deposited in the Protein Data Bank, with accession code 9BR K.
(§7) 1. Y. Chen, A. Sonawane, R. Manda, R. K. G adi, J. J. G. Tesmer, A. K. Ghosh. Development of a new class of potent and highly select ive G protein- coupled r eceptor kinase 5 inhibitors and structural insight from crystal structures of inhibitor complexes. Eur. J. Med. Chem. 2024, 264, 115931.
(§8) 2. D. T. Lodowski, V. M. T esmer, J. L. Benovic, J. J. Tesmer. The structure of G protein- coupled receptor kinase (GRK)-6 defines a second lineage of GRKs. J. Bio l. C he m. 2006, 281,16785- 16793.

In the next test the target is T2, GRK5 (Homo sapiens, UniProt P34947).
T2 construct: Human GR K5 (residues 1- 590) w ild- type and D 311N mutant w ere expressed in E. co li Rosetta; His tag (inferred from nickel-NTA purification); made in house; host or cells: E. coli Rosetta (DE3)
T2 sequence (P34947 whole entry, the tested form may be a part): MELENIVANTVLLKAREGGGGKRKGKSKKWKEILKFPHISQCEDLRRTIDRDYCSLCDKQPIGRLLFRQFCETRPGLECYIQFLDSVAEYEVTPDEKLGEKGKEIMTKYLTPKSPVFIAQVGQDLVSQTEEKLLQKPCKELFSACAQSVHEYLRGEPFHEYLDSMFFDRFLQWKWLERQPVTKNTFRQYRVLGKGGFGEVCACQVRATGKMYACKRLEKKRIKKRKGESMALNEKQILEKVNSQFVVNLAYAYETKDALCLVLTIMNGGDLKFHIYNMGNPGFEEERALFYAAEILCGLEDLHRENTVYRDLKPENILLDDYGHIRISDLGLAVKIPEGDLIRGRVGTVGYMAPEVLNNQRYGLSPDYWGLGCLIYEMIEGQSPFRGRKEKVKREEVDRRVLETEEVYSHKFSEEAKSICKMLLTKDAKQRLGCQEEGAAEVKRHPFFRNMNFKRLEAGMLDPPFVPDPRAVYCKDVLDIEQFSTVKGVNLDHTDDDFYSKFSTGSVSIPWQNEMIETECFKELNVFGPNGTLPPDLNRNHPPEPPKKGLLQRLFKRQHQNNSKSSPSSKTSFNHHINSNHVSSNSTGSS
Nature of the test: GRK5 kinase inhibition assay, phosphorylation of tubulin ([γ-32P]-ATP). To be noted: for selectivity over GRK2: GRK5 vs GRK2, as stated in text; for Selectivity GRK2/GRK5: fold selectivity for GRK5 over GRK2; for IC50: phosphorylation of the soluble substrate tubulin, ± standard deviation from 3 to 4 independent experiments. Here is the method:
as §1, §2, §3, §4, §5, §6, §7, §8

In the next test the target is T3, GRK6 (Homo sapiens, UniProt P43250, C561S/C562S/C565S/T10A).
T3 construct: His tag (inferred: purified by the GRK5 protocol, which starts with nickel-NTA); made in house; host or cells: Sf9 insect cells
T3 sequence (P43250 whole entry T10A/C561S/C562S/C565S): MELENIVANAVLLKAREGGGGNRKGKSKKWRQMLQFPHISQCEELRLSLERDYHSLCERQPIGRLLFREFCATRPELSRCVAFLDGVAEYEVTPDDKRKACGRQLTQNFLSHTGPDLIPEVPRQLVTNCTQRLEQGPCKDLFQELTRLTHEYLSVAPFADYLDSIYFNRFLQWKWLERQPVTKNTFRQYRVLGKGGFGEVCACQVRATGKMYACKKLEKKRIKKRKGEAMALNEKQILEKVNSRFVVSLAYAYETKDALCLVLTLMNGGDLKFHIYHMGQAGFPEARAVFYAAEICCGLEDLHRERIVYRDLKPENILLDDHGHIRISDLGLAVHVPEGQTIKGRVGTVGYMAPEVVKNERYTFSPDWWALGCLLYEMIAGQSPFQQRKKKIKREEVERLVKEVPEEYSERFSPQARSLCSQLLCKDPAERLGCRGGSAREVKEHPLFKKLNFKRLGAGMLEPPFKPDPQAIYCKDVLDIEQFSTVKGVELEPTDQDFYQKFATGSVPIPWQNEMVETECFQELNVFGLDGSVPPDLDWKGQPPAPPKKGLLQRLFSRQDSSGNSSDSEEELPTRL
Put plainly: GRK6 kinase inhibition assay, phosphorylation of tubulin ([γ-32P]-ATP). To be noted: for Selectivity GRK5/GRK6: fold selectivity for GRK6 over GRK5; for IC50: phosphorylation of the soluble substrate tubulin, ± standard deviation from 3 to 4 independent experiments. As for the experimental part:
as §1, §2, §3, §4, §5, §6, §7, §8

For `Cc1[nH]c(/C=C2\C(=O)Nc3ccc(C(=O)N[C@H](C)c4ccc(F)cc4)cc32)c(C)c1NC(=O)[C@@H]1C=CCN1` [6j, (Z)‐3‐((4‐((S)‐2,5‐Dihydro‐1H‐Pyrrole‐2‐Carboxamido)‐3,5‐Dimethyl‐1H‐Pyrrol‐2‐Yl)Methylene)‐N‐((R)‐1‐(4‐Fluorophenyl)Ethyl)‐2‐Oxoindoline‐5‐Carboxamide], the IC50 (usually the concentration needed to halve the response being measured) at GRK2 is 0.48 ± 0.4 µM. At GRK5, the “selectivity over GRK2” value was “over 15 fold”, the “Selectivity GRK2/GRK5” value came out at 16 fold and it took 0.03 ± 0.004 µM to reach half-maximal inhibition (IC50). Besides, at GRK6, the “Selectivity GRK5/GRK6” value is recorded as 1 fold and the half-maximal inhibitory concentration (IC50) came out at 0.03 ± 0.01 µM.

Take `Cc1[nH]c(/C=C2\C(=O)Nc3ccc(C(=O)N[C@H](C)c4ccc(F)cc4)cc32)c(C)c1NC(=O)[C@@H]1CCN(C(=O)OC(C)(C)C)C1` [6k, Tert‐Butyl(R)‐3‐((5‐(((Z)‐5‐(((R)‐1‐(4‐Fluorophenyl)Ethyl)Carbamoyl)‐2‐Oxoindolin‐3‐Ylidene)Methyl)‐2,4‐Dimethyl‐1H‐Pyrrol‐3‐Yl)Carbamoyl)Pyrrolidine‐1‐Carboxylate]: at GRK2, the “activity against GRK2 (in words)” value is “little to no activity” and the IC50 is 300 ± 100 µM. Further, on GRK5, the “GRK5 IC50 (in words)” value is “low micromolar range”, the “Selectivity GRK2/GRK5” value came to 140 fold and the IC50 was 2.1 ± 0.9 µM. Moreover, on GRK6, the “GRK6 IC50 (in words)” value is reported as “low micromolar range”, the “Selectivity GRK5/GRK6” value came out at 1 fold and half-maximal inhibition (IC50) required 1.4 ± 0.2 µM.

In turn, `Cc1[nH]c(/C=C2\C(=O)Nc3ccc(C(=O)N[C@H](C)c4ccc(F)cc4)cc32)c(C)c1NC(=O)[C@H]1CCN(C(=O)OC(C)(C)C)C1` [6l, Tert‐Butyl(S)‐3‐((5‐(((Z)‐5‐(((R)‐1‐(4‐Fluorophenyl)Ethyl)Carbamoyl)‐2‐Oxoindolin‐3‐Ylidene)Methyl)‐2,4‐Dimethyl‐1H‐Pyrrol‐3‐Yl)Carbamoyl)Pyrrolidine‐1‐Carboxylate] yielded a concentration for half-maximal inhibition (IC50) on GRK2 above 1000 µM. At GRK5, the “Selectivity GRK2/GRK5” value is recorded as above 1000 fold and the IC50 amounted to 1 ± 0.6 µM. For the same compound, on GRK6, the “Selectivity GRK5/GRK6” value is 1 fold and the half-maximal inhibitory concentration (IC50) was 0.88 ± 0.05 µM.

Turning to `Cc1[nH]c(/C=C2\C(=O)Nc3ccc(C(=O)N[C@H](C)c4ccc(F)cc4)cc32)c(C)c1NC(=O)[C@H]1CCCCN1C(=O)OC(C)(C)C` [6m, Tert‐Butyl(R)‐2‐((5‐(((Z)‐5‐(((R)‐1‐(4‐Fluorophenyl)Ethyl)Carbamoyl)‐2‐Oxoindolin‐3‐Ylidene)Methyl)‐2,4‐Dimethyl‐1H‐Pyrrol‐3‐Yl)Carbamoyl)Piperidine‐1‐Carboxylate], the IC50 against GRK2 stood at 1.2 ± 0.4 µM; against GRK5, 0.5 ± 0.1 µM; at GRK6 it was 2.5 ± 0.4 µM. At GRK5, the “Selectivity GRK2/GRK5” value stood at 2 fold.

With `Cc1[nH]c(/C=C2\C(=O)Nc3ccc(C(=O)N[C@H](C)c4ccc(F)cc4)cc32)c(C)c1NC(=O)[C@@H]1CCCCN1C(=O)OC(C)(C)C` [6n, Tert‐Butyl(S)‐2‐((5‐(((Z)‐5‐(((R)‐1‐(4‐Fluorophenyl)Ethyl)Carbamoyl)‐2‐Oxoindolin‐3‐Ylidene)Methyl)‐2,4‐Dimethyl‐1H‐Pyrrol‐3‐Yl)Carbamoyl)Piperidine‐1‐Carboxylate], the half-maximal inhibitory concentration (IC50) against GRK2 was determined as 100 ± 70 µM. Further, at GRK5, the “Selectivity GRK2/GRK5” value worked out at 3 fold and the IC50 came out at 33 ± 6 µM. Besides, at GRK6, the “Selectivity GRK5/GRK6” value is on record as 37 fold and the half-inhibitory concentration (IC50) is 0.9 ± 0.8 µM.

Compound `Cc1[nH]c(/C=C2\C(=O)Nc3ccc(C(=O)N[C@H](C)c4ccc(F)cc4)cc32)c(C)c1NC(=O)[C@H]1CCCN(C(=O)OC(C)(C)C)C1` [6o, Tert‐Butyl(S)‐3‐((5‐(((Z)‐5‐(((R)‐1‐(4‐Fluorophenyl)Ethyl)Carbamoyl)‐2‐Oxoindolin‐3‐Ylidene)Methyl)‐2,4‐Dimethyl‐1H‐Pyrrol‐3‐Yl)Carbamoyl)Piperidine‐1‐Carboxylate] had a concentration for half-maximal inhibition (IC50) at GRK2 of 6.2 ± 3 µM. On GRK5, the “Selectivity GRK2/GRK5” value is recorded as 66 fold and the midpoint of inhibition, the IC50, lay at 0.094 ± 0.01 µM. Also, on GRK6, the “Selectivity GRK5/GRK6” value was determined as 1 fold and the IC50 stood at 0.15 ± 0.06 µM.

`Cc1[nH]c(/C=C2\C(=O)Nc3ccc(C(=O)N[C@H](C)c4ccc(F)cc4)cc32)c(C)c1NC(=O)[C@@H]1CCCN(C(=O)OC(C)(C)C)C1` [6p, Tert‐Butyl(R)‐3‐((5‐(((Z)‐5‐(((R)‐1‐(4‐Fluorophenyl)Ethyl)Carbamoyl)‐2‐Oxoindolin‐3‐Ylidene)Methyl)‐2,4‐Dimethyl‐1H‐Pyrrol‐3‐Yl)Carbamoyl)Piperidine‐1‐Carboxylate]: the IC50 on GRK2 was 610 ± 450 µM. On GRK5, the “selectivity over GRK2” value was “over 1500 fold”, the “Selectivity GRK2/GRK5” value came out at 1500 fold and half-maximal inhibition (IC50) was put at 0.41 ± 0.1 µM. Besides, on GRK6, the “Selectivity GRK5/GRK6” value was 1 fold and the IC50 came out at 0.34 ± 0.3 µM.

At GRK2, `Cc1[nH]c(/C=C2\C(=O)Nc3ccc(C(=O)N[C@H](C)c4ccc(F)cc4)cc32)c(C)c1NC(=O)[C@H]1CCCNC1` [6q, (Z)‐3‐((3,5‐Dimethyl‐4‐((S)‐Piperidine‐3‐Carboxamido)‐1H‐Pyrrol‐2‐Yl)Methylene)‐N‐((R)‐1‐(4‐Fluorophenyl)Ethyl)‐2‐Oxoindoline‐5‐Carboxamide] returned an IC50 of 0.11 ± 0.02 µM. On GRK5, the “Selectivity GRK2/GRK5” value amounted to 4 fold and the IC50 amounted to 0.03 ± 0.02 µM. Also, at GRK6, the “Selectivity GRK5/GRK6” value amounted to 2 fold and the IC50 was determined as 0.016 ± 0.003 µM.

For the compound `Cc1[nH]c(/C=C2\C(=O)Nc3ccc(C(=O)N[C@H](C)c4ccc(F)cc4)cc32)c(C)c1NC(=O)[C@@H]1CCCNC1` [6r, (Z)‐3‐((3,5‐Dimethyl‐4‐((R)‐Piperidine‐3‐Carboxamido)‐1H‐Pyrrol‐2‐Yl)Methylene)‐N‐((R)‐1‐(4‐Fluorophenyl)Ethyl)‐2‐Oxoindoline‐5‐Carboxamide], the 50% inhibitory concentration (IC50) against GRK2 came to 0.62 ± 0.3 µM. Moreover, on GRK5, the “Selectivity GRK2/GRK5” value was 20 fold and half-maximal inhibition (IC50) was put at 0.03 ± 0.002 µM. Further, at GRK6, the “Selectivity GRK5/GRK6” value is recorded as 1 fold and the IC50 was 0.06 ± 0.02 µM.
